Data from publication PMC10901950, “Neuroprotective and Anti-inflammatory Effects of Rubiscolin-6 Analogs with Proline Surrogates in Position 2” (Neurochemical Research, 2023).
Numbered stars: 1 amine (or outer) side, 2 acyl side, 3 side chain; on linkers, the order of the positions; unused ones are H or OH. Square brackets hold non-standard residues; d marks the D form. Ends that are not written are not given here. Peptide text beside a SMILES is read from it. Nip(3R) = O=C([C@@H]1CCCN([*:1])C1)[*:2]; Dmt = Cc1cc(O)cc(C)c1C[C@H](N)C(=O)O; Inp = O=C(O)C1CCNCC1

Legend:
[1] = Degradation by the brain homogenate; assay type: in vitro ADME; conditions: rat brain homogenate 100 µL (10 mg protein/mL, 50 mM Tris-HCl pH 7.4) + 100 µL peptide 0.5 mM, final 200 µL, 37 °C, 0-60 min, HPLC read-out, ln 2/k; mean ± SEM of four independent experiments in duplicate; read-out: T0.5 (degradation half-life)
Experimental: The degradation studies were performed on the rat brain homogenate according to the modified method described elsewhere. Briefly, rat brains, after isolation and homogenization in 50 mM Tris–HCl (pH 7.4), were stored at − 80 °C until used. During the test, the aliquots (100 µL, 10 mg protein/mL) were incubated with 100 µL of a peptide (0.5 mM) over 0, 7.5, 15, 22.5, 30, and 60 min at 37 °C in a final volume of 200 µL. The reaction was stopped at the required time by placing the tube on ice and acidifying it with 20 µL of 1 M aqueous HCl solution. Then, the aliquots were centrifuged at 20,000×g for 10 min at 4 °C. The obtained supernatants were filtered and analyzed by HPLC on a Vydac C18 column (5 µm, […]) using the solvent system of 0.1% trifluoroacetic acid (TFA) in water (A) and 80% acetonitrile in water containing 0.1% TFA (B) and a linear gradient of 0–100% B over 25 min. The rate constants of degradation (k) were obtained as described earlier by a least square linear regression analysis of logarithmic peak areas [ln(A/AD)], where A—the amount of peptide remaining, AD—the initial amount of peptide, versus time. Degradation half-lives (t1/2) were calculated from the rate constants as ln 2/k.

µ-opioid receptor [2] = target: T1, µ-opioid receptor (Homo sapiens, UniProt P35372); assay: Opioid receptor binding assay, [3H]DAMGO competition; parameters: purchased; host or cells: CHO cells (membranes); conditions: CHO cell membranes, 0.5 nM [3H]DAMGO, 25 °C, 120 min; mean ± SEM of four experiments in duplicate; read-out: Ki MOR
Experimental: The opioid receptor binding assays were performed using the modified method described elsewhere. Briefly, commercial membranes of Chinese Hamster Ovary (CHO) cells transfected with human opioid receptors were used. The binding affinities for µ-, δ- and κ-opioid receptors were determined by radioligand competition analysis using [^3H]DAMGO, [^3H]deltorphin-2, and [^3H]U-69593, respectively. Membranes were incubated at 25 °C for 120 min with appropriate concentrations of a tested peptide in the presence of 0.5 nM radioligand in a total volume of 0.5 mL of 50 mM Tris/HCl (pH 7.4) containing bovine serum albumin (BSA) (1 mg/mL), bacitracin (50 µg/mL), bestatin (30 µM), and captopril (10 µM). Non-specific binding was determined in the presence of 1 µM naloxone. Incubations were terminated by the rapid filtration through the GF/B Whatman (Brentford, UK) glass fibre strips (pre-soaked for 2 h in 0.5% (v/v) […]) using Millipore Sampling Manifold (Billerica, MA, USA). The filters were washed thrice with 4 mL of ice-cold Tris buffer solution. Packard Tri-Carb 2100 TR liquid scintillation counter (Ramsey, MN, USA) was used to measure the bound radioactivity after overnight extraction of the filters in 4 mL of a Perkin Elmer Ultima Gold scintillation fluid (Wellesley, MA, USA). The data were analyzed by a nonlinear least square regression analysis computer program Graph Pad PRISM 6.0 (Graph Pad Software Inc., San Diego, CA, USA). The values of the inhibitory constants (Ki) were calculated according to the equation of Cheng and Prusoff.
The ability of R-6 and its new analogs to bind to µ-, δ- and κ-opioid receptors was determined by competitive binding assays against [^3H]DAMGO, [^3H][Ile^5,6]deltorphin-2 and [^3H]U-69593, respectively, using membranes of CHO cells transfected with opioid receptors and are summarized in Table 2.

µ-opioid receptor [3] = target: T1, µ-opioid receptor; assay: Calcium mobilisation assay, CHO cells with Gαqi5; assay type: cell-based; parameters: expressed in transfected cells; gift from Prof; Girolamo Calo, University of Padova; conditions: for µ-opioid receptors pEC50 (CL95%): agonist potency, mean ± SEM of three experiments in triplicate; for µ-opioid receptors pEC50 (CL95%) / µ-opioid receptors α ± SEM: Inactive = inactive as an agonist up to 1 µM; for µ-opioid receptors α ± SEM: intrinsic activity, Emax ratio to Dermorphin; for EC50: read-out: µ-opioid receptors pEC50 (CL95%) (converted)
Experimental: Chinese Hamster Ovary (CHO) cells stably co-expressing human recombinant µ- or κ-opioid receptors and the C-terminally modified Gαqi5, and CHO cells co-expressing the human recombinant δ-opioid receptors and the GαqG66Di5 chimeric protein (a generous gift from Prof. Girolamo Calo, University of Padova, Italy) were used in calcium mobilization assay, that was performed as reported in detail elsewhere. Cells were cultured in Dulbecco’s Modified Eagle’s Medium (DMEM)/Ham’s F12 (1:1) culture medium supplemented with 10% (v/v) Fetal Bovine Serum (FBS), penicillin (100 IU/mL), streptomycin (100 µg/mL), L-glutamine (2 mM), fungizone (1 µg/mL), geneticin (G418; 200 µg/mL) and hygromycin B (100 µg/mL). Cell cultures were kept at 37 °C in 5% CO2/humidified air. When confluence was reached (3–4 days), cells were seeded at a density of 50,000 cells/well into 96-well black, clear-bottom plates. After 24 h incubation, the cells were loaded with a medium supplemented with probenecid (2.5 mM), calcium-sensitive fluorescent dye Fluo-4 AM (3 µM), pluronic acid (0.01%), and HEPES (20 mM) and kept for 30 min at 37 °C. Then, the loading solution was aspirated, and 100 µL/well of assay buffer (HBSS supplemented with 20 mM HEPES, 2.5 mM probenecid, and 500 µM Brilliant Black) was added.
The tested peptides were diluted in the HBSS/HEPES (20 mM) buffer (containing 0.005% BSA) and placed into 96-well plates. The range of concentrations tested was 10 µM–1 × 10^–6 µM. After placing both plates (cell culture and compound plate) into the FlexStation II (Molecular Device, Union City, CA, USA), the online additions were carried out in a volume of 50 µL/well and the fluorescence changes were measured.
Concentration–response curves were fitted with the four-parameter logistic, nonlinear regression model: Effect=baseline+Emax- baseline/1+10^logEC50- Xn where X is the agonist concentration and n is the Hill coefficient. Ligand efficacies, expressed as the intrinsic activity (α), were calculated as the Emax ratio of the tested compound and the standard agonist.

T1 sequence (P35372 whole entry): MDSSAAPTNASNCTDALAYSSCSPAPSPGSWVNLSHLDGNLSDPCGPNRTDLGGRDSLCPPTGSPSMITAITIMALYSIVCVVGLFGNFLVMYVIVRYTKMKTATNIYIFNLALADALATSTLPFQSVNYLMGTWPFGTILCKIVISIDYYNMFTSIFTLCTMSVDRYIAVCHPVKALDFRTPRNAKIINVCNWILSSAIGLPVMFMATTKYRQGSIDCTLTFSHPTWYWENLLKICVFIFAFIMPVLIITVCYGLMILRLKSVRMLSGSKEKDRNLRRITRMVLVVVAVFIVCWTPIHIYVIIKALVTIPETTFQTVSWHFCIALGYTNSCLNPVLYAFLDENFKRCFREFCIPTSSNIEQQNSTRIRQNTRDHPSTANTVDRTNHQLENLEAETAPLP

Molecule | half-life at 0.25 mM [1] [min] | Ki (µ-opioid receptor [2]) [nM] | µ-opioid receptors pEC50 (CL95%) (µ-opioid receptor [3]) | µ-opioid receptors α ± SEM (µ-opioid receptor [3]) | EC50 (µ-opioid receptor [3]) [nM]
CC(C)C[C@H](NC(=O)C1CCN(C(=O)[C@@H](N)Cc2ccc(O)cc2)CC1)C(=O)N[C@@H](CC(=O)O)C(=O)N[C@@H](CC(C)C)C(=O)N[C@@H](Cc1ccccc1)C(=O)O [analog 3, Tyr-Inp-Leu-Asp-Leu-Phe-OH] (H-Y[Inp]LDLF-OH) | 28.6 ± 0.95 | > 1000 | Inactive | Inactive | –
Cc1cc(O)cc(C)c1C[C@H](N)C(=O)N1CCC[C@@H](C(=O)N[C@@H](CC(C)C)C(=O)N[C@@H](CC(=O)O)C(=O)N[C@@H](CC(C)C)C(=O)N[C@@H](Cc2ccccc2)C(=O)O)C1 [analog 4, Dmt-(R)-Nip-Leu-Asp-Leu-Phe-OH] (H-[Dmt][Nip(3R)]LDLF-OH) | 30.4 ± 1.2 | > 1000 | Inactive | Inactive | –
CC(C)C[C@H](NC(=O)C1CCN(C(=O)[C@@H](N)Cc2ccc(O)cc2)CC1)C(=O)N[C@@H](CC(=O)O)C(=O)N[C@@H](CC(C)C)C(=O)N[C@@H](Cc1ccccc1)C(N)=O [analog 7, Tyr-Inp-Leu-Asp-Leu-Phe-NH2] (H-Y[Inp]LDLF-NH2) | 30.7 ± 0.35 | > 1000 | Inactive | Inactive | –
Cc1cc(O)cc(C)c1C[C@H](N)C(=O)N1CCC(C(=O)N[C@@H](CC(C)C)C(=O)N[C@@H](CC(=O)O)C(=O)N[C@@H](CC(C)C)C(=O)N[C@@H](Cc2ccccc2)C(=O)O)CC1 [analog 5, Dmt-Inp-Leu-Asp-Leu-Phe-OH] (H-[Dmt][Inp]LDLF-OH) | 38.5 ± 0.7 | 712 ± 101 | – | 0.11 ± 0.04 | 7590
YPLDLF [R-6, rubiscolin-6] | 14.3 ± 0.8 | > 1000 | Inactive | Inactive | –
Cc1cc(O)cc(C)c1C[C@H](N)C(=O)N1CCC[C@H]1C(=O)N[C@@H](CC(C)C)C(=O)N[C@@H](CC(=O)O)C(=O)N[C@@H](CC(C)C)C(=O)N[C@@H](Cc1ccccc1)C(=O)O [analog 1, Dmt-Pro-Leu-Asp-Leu-Phe-OH] (H-[Dmt]PLDLF-OH) | 20.8 ± 0.85 | 599 ± 84.5 | – | 0.22 ± 0.05 | 2000
CC(C)C[C@H](NC(=O)[C@@H]1CCCN(C(=O)[C@@H](N)Cc2ccc(O)cc2)C1)C(=O)N[C@@H](CC(=O)O)C(=O)N[C@@H](CC(C)C)C(=O)N[C@@H](Cc1ccccc1)C(=O)O [analog 2, Tyr-(R)-Nip-Leu-Asp-Leu-Phe-OH] (H-Y[Nip(3R)]LDLF-OH) | 25.5 ± 0.4 | > 1000 | Inactive | Inactive | –
YPLDLF-NH2 [analog 6, Tyr-Pro-Leu-Asp-Leu-Phe-NH2] | 23.2 ± 1.05 | > 1000 | Inactive | Inactive | –
